US11242337B2, “Compounds useful for treating gastrointestinal tract disorders” (Ardelyx, Inc., priority 2017, dated 2022)

Experiments:
[1] = human absorption data, from Ertl et al., J. Med. Chem, 2000; cited from earlier work
NHE3 = biological target: T1, NHE3 (Homo sapiens, UniProt P48764); assay: persistent inhibition of NHE3 in the cell-based assay of example 181 (4-chloro vs 4-cyano pairs); conditions: for IC50: read-out: pIC50 (persistent) (converted); for Percent Inhibition: cell-based assay of example 181, persistent
T1 construct: expressed in transfected cells
T1 sequence (P48764 26-834): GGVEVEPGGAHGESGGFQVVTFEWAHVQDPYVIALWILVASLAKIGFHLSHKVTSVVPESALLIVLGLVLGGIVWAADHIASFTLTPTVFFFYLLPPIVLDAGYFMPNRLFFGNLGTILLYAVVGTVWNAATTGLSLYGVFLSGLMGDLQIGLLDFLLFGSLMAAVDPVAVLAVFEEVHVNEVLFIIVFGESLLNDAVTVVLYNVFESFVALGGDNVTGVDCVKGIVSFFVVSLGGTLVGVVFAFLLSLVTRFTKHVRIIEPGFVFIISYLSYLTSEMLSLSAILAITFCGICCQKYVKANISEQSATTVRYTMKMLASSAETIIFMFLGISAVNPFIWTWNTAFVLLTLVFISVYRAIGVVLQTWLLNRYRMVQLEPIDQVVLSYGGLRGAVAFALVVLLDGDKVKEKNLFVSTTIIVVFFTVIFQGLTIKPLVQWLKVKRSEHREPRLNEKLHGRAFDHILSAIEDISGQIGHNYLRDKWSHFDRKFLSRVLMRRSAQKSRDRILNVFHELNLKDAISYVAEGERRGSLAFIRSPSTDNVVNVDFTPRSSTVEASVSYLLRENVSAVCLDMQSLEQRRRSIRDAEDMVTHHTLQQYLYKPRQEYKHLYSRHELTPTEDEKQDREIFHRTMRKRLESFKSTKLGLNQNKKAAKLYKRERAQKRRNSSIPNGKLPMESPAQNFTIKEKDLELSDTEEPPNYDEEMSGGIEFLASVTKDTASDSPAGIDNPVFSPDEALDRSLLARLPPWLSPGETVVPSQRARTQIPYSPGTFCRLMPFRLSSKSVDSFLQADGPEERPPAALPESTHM
T1 sequence (Q99653 2-195 partner limits assumed): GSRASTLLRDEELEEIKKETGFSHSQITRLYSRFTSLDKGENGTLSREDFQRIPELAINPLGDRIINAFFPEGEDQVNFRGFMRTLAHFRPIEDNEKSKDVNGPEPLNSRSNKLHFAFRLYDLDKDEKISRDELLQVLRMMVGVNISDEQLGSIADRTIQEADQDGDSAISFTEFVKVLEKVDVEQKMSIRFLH
Procedure: The following pairs of compounds differ only in the 4-position substituent (either chloro (X—Cl) or cyano (X—CN)):
The ability of compounds to inhibit human and rat NHE-3-mediated Na^+ dependent H^+ antiport after application and washout was measured using a modification of the pH sensitive dye method described above. PS120 fibroblasts stably expressing human NHE3 and NHERF2 were obtained from Mark Donowitz (Baltimore, Md.). Opossum kidney (OK) cells were obtained from the ATCC and propagated per their instructions. The rat NHE-3 gene was introduced into OK cells via electroporation, and cells were seeded into 96 well plates and grown overnight. Medium was aspirated from the wells, cells were washed once with NaCl-HEPES buffer (100 mM NaCl, 50 mM HEPES, 10 mM glucose, 5 mM KCl, 2 mM CaCl2, 1 mM MgCl2, pH 7.4), then overlayed with NaCl-HEPES buffer containing 0-30 μM test compound. After a 60 min incubation at room temperature, the test drug containing buffer was aspirated from the cells. Following aspiration, cells were washed once with NaCl-HEPES buffer without drug, then incubated for 30 min at 37° C. with NH4Cl-HEPES buffer (20 mM NH4Cl, 80 mM NaCl, 50 mM HEPES, 5 mM KCl, 2 mM CaCl2, 1 mM MgCl2, pH 7.4) containing 5 μM BCECF-AM. Cells were washed once with Ammonium free, Na^+-free HEPES (100 mM choline, 50 mM HEPES, 10 mM glucose, 5 mM KCl, 2 mM CaCl2, 1 mM MgCl2, pH 7.4) and incubated in the same buffer for 10 minutes at room temperature to lower intracellular pH. NHE-3-mediated recovery of neutral intracellular pH was initiated (10 min after compound washout) by addition of Na-HEPES buffer. […] Changes in intracellular pH were monitored using a FLIPR Tetra® (Molecular Devices, Sunnyvale, Calif.) by excitation at λex 439 to 505 nm, and measuring BCECF fluorescence at λem 538 nm. The initial rate of the fluorescence ratio change was used as a measure of NHE-mediated Na^+/H^+ activity, and reported as the change in fluorescence ratio per minute.

[2] = cell-based assay of example 181, after washout

| SMILES | % FA [1] | also measured |
| --- | --- | --- |
| OC[C@H]1O[C@@H](O[C@@H]2[C@@H](CO)OC(O)(CO)[C@H]2O)[C@H](O)[C@@H](O)[C@H]1O (mixture of isomers) [lactulose, reference compound] | 0.6% | – |
| CN(C)[C@@H]1CCCN([C@H]2Cc3c(C#N)cc(Cl)cc3[C@@H]2Oc2ccc(S(=O)(=O)NCCOCCOCCNC(=O)NCCCCNC(=O)NCCOCCOCCNS(=O)(=O)c3ccc(O[C@H]4c5cc(Cl)cc(C#N)c5C[C@@H]4N4CCC[C@@H](N(C)C)C4)cc3)cc2)C1 [E-CN, 3-(2-{2-[2-(4-{[(1S,2S)-6-chloro-4-cyano-2-[(3R)-3-(dimethylamino)piperidin-1-yl]-2,3-dihydro-1H-inden-1-yl]oxy}benzenesulfonamido)ethoxy]ethoxy}ethyl)-1-(4-{[(2-{2-[2-(4-{[(1S,2S)-6-chloro-4-cyano-2-[(3R)-3-(dimethylamino)piperidin-1-yl]-2,3-dihydro-1H-inden-1-yl]oxy}benzenesulfonamido)ethoxy]ethoxy}ethyl)carbamoyl]amino}butyl)urea] | – | IC50 (NHE3; [2]): 1.26 nM; Percent Inhibition (NHE3): 36% |
| CN(C)[C@@H]1CCCN([C@H]2Cc3c(Cl)cc(Cl)cc3[C@@H]2Oc2ccc(S(=O)(=O)NCCOCCOCCNC(=O)NCCCCNC(=O)NCCOCCOCCNS(=O)(=O)c3ccc(O[C@H]4c5cc(Cl)cc(Cl)c5C[C@@H]4N4CCC[C@@H](N(C)C)C4)cc3)cc2)C1 [E-Cl, 3-(2-{2-[2-(4-{[(1S,2S)-4,6-dichloro-2-[(3R)-3-(dimethylamino)piperidin-1-yl]-2,3-dihydro-1H-inden-1-yl]oxy}benzenesulfonamido)ethoxy]ethoxy}ethyl)-1-(4-{[(2-{2-[2-(4-{[(1S,2S)-4,6-dichloro-2-[(3R)-3-(dimethylamino)piperidin-1-yl]-2,3-dihydro-1H-inden-1-yl]oxy}benzenesulfonamido)ethoxy]ethoxy}ethyl)carbamoyl]amino}butyl)urea] | – | IC50 (NHE3; [2]): 5.01 nM; Percent Inhibition (NHE3): 99% |
| Cc1cc(S(=O)(=O)NCCOCCOCCNC(=O)NCCCCNC(=O)NCCOCCOCCNS(=O)(=O)c2ccc(O[C@H]3c4cc(Cl)cc(C#N)c4C[C@@H]3N3CCNCC3)c(C)c2)ccc1O[C@H]1c2cc(Cl)cc(C#N)c2C[C@@H]1N1CCNCC1 [F-CN, 3-(2-{2-[2-(4-{[(1S,2S)-6-chloro-4-cyano-2-(piperazin-1-yl)-2,3-dihydro-1H-inden-1-yl]oxy}-3-methylbenzenesulfonamido)ethoxy]ethoxy}ethyl)-1-(4-{[(2-{2-[2-(4-{[(1S,2S)-6-chloro-4-cyano-2-(piperazin-1-yl)-2,3-dihydro-1H-inden-1-yl]oxy}-3-methylbenzenesulfonamido)ethoxy]ethoxy}ethyl)carbamoyl]amino}butyl)urea] | – | IC50 (NHE3; [2]): 2.51 nM; Percent Inhibition (NHE3): 88% |
| Cc1cc(S(=O)(=O)NCCOCCOCCNC(=O)NCCCCNC(=O)NCCOCCOCCNS(=O)(=O)c2ccc(O[C@H]3c4cc(Cl)cc(Cl)c4C[C@@H]3N3CCNCC3)c(C)c2)ccc1O[C@H]1c2cc(Cl)cc(Cl)c2C[C@@H]1N1CCNCC1 [F-Cl, 3-(2-{2-[2-(4-{[(1S,2S)-4,6-dichloro-2-(piperazin-1-yl)-2,3-dihydro-1H-inden-1-yl]oxy}-3-methylbenzenesulfonamido)ethoxy]ethoxy}ethyl)-1-(4-{[(2-{2-[2-(4-{[(1S,2S)-4,6-dichloro-2-(piperazin-1-yl)-2,3-dihydro-1H-inden-1-yl]oxy}-3-methylbenzenesulfonamido)ethoxy]ethoxy}ethyl)carbamoyl]amino}butyl)urea] | – | IC50 (NHE3; [2]): 20 nM; Percent Inhibition (NHE3): 104% |
| N#Cc1cc(Cl)cc2c1C[C@H](N1CCNCC1)[C@H]2Oc1ccc(S(=O)(=O)NCCOCCOCCNC(=O)NCCCCNC(=O)NCCOCCOCCNS(=O)(=O)c2ccc(O[C@H]3c4cc(Cl)cc(C#N)c4C[C@@H]3N3CCNCC3)cc2)cc1 [G-CN, 3-(2-{2-[2-(4-{[(1S,2S)-6-chloro-4-cyano-2-(piperazin-1-yl)-2,3-dihydro-1H-inden-1-yl]oxy}benzenesulfonamido)ethoxy]ethoxy}ethyl)-1-(4-{[(2-{2-[2-(4-{[(1S,2S)-6-chloro-4-cyano-2-(piperazin-1-yl)-2,3-dihydro-1-yl]oxy}benzenesulfonamido)ethoxy]ethoxy}ethyl)carbamoyl]amino}butyl)urea] | – | pIC50 (persistent) (NHE3; [2]): 9.0 |
| O=C(NCCCCNC(=O)NCCOCCOCCNS(=O)(=O)c1ccc(O[C@H]2c3cc(Cl)cc(Cl)c3C[C@@H]2N2CCNCC2)cc1)NCCOCCOCCNS(=O)(=O)c1ccc(O[C@H]2c3cc(Cl)cc(Cl)c3C[C@@H]2N2CCNCC2)cc1 [G-Cl, 3-(2-{2-[2-(4-{[(1S,2S)-4,6-dichloro-2-(piperazin-1-yl)-2,3-dihydro-1H-inden-1-yl]oxy}benzenesulfonamido)ethoxy]ethoxy}ethyl)-1-(4-{[(2-{2-[2-(4-{[(1S,2S)-4,6-dichloro-2-(piperazin-1-yl)-2,3-dihydro-1H-inden-1-yl]oxy}benzenesulfonamido)ethoxy]ethoxy}ethyl)carbamoyl]amino}butyl)urea] | – | IC50 (NHE3; [2]): 6.31 nM; Percent Inhibition (NHE3): 82% |
| C=CCc1ccccc1OCC(O)CNC(C)C (stereo not shown) [alprenolol] | 96% | – |
| O=C(O)P(=O)(O)O [foscarnet] | 17% | – |
| OC[C@@H](O)[C@@H](O)[C@H](O)[C@H](O)CO [mannitol, reference compound] | 26% | – |
| Cc1ccccc1N1C(=O)c2cc(S(N)(=O)=O)c(Cl)cc2NC1C (stereo not shown) [metolazone, Metolazone, reference compound] | 64% | – |
| O=C(O)c1cc(/N=N/c2ccc(O)c(C(=O)O)c2)ccc1O [olsalazine] | 2.3% | – |
| C=CCOc1ccccc1OCC(O)CNC(C)C (stereo not shown) [ozprenolol] | 97% | – |
| Cc1cc(=O)n(-c2ccccc2)n1C [phenazone] | 97% | – |
| CC(C)NCC(O)COc1cccc2[nH]ccc12 (stereo not shown) [pindolol] | 92% | – |
| CC(=O)Nc1ccc(OCC(O)CNC(C)C)cc1 (stereo not shown) [practolol] | 95% | – |
| OC[C@H]1O[C@H](OC[C@H]2O[C@H](O[C@]3(CO)O[C@H](CO)[C@@H](O)[C@@H]3O)[C@H](O)[C@@H](O)[C@@H]2O)[C@H](O)[C@@H](O)[C@H]1O [raffinose] | 0.3% | – |
| O=C(O)c1cc(/N=N/c2ccc(S(=O)(=O)Nc3ccccn3)cc2)ccc1O [sulfasalazine, reference compound] | 12% | – |
| CCN1CCCC1CNC(=O)c1cc(S(N)(=O)=O)ccc1OC (stereo not shown) [sulpiride] | 36% | – |
| NC[C@H]1CC[C@H](C(=O)O)CC1 [tranexamic acid] | 55% | – |
